{
  "source": "the OligoGym collection",
  "note": "Oligonucleotides are given in HELM: sugar(base)linkage, 5' to 3'; d 2'-deoxyribose, r ribose, m 2'-O-methylribose, p phosphate. ss, as = sense and antisense strand; also: test concentration or dose not given here",
  "data": [
    {"target": "UBE2N", "assay": "reporter assay of Huesken 2005", "details": "siRNA", "units": {"normalised inhibition (eCFP-eYFP dual reporter)": "%"}, "values": [
      {"substance": "RNA1{r(G)p.r(C)p.r(C)p.r(G)p.r(A)p.r(A)p.r(C)p.r(C)p.r(A)p.r(G)p.r(A)p.r(U)p.r(G)p.r(A)p.r(G)p.r(A)p.r(G)p.r(C)p.r(A)p.d(T)p.d(T)}|RNA2{r(U)p.r(G)p.r(C)p.r(U)p.r(C)p.r(U)p.r(C)p.r(A)p.r(U)p.r(C)p.r(U)p.r(G)p.r(G)p.r(U)p.r(U)p.r(C)p.r(G)p.r(G)p.r(C)p.d(T)p.d(T)}$$$RNA1{StrandType:ss}|RNA2{StrandType:as}$", "normalised inhibition (eCFP-eYFP dual reporter)": 82.6},
      {"substance": "RNA1{r(G)p.r(G)p.r(A)p.r(C)p.r(U)p.r(U)p.r(U)p.r(U)p.r(A)p.r(A)p.r(A)p.r(C)p.r(U)p.r(U)p.r(G)p.r(A)p.r(A)p.r(C)p.r(U)p.d(T)p.d(T)}|RNA2{r(A)p.r(G)p.r(U)p.r(U)p.r(C)p.r(A)p.r(A)p.r(G)p.r(U)p.r(U)p.r(U)p.r(A)p.r(A)p.r(A)p.r(A)p.r(G)p.r(U)p.r(C)p.r(C)p.d(C)p.d(T)}$$$RNA1{StrandType:ss}|RNA2{StrandType:as}$", "normalised inhibition (eCFP-eYFP dual reporter)": 87.2},
      {"substance": "RNA1{r(G)p.r(G)p.r(U)p.r(C)p.r(C)p.r(C)p.r(C)p.r(A)p.r(G)p.r(C)p.r(A)p.r(C)p.r(U)p.r(G)p.r(C)p.r(A)p.r(G)p.r(A)p.r(U)p.d(T)p.d(T)}|RNA2{r(A)p.r(U)p.r(C)p.r(U)p.r(G)p.r(C)p.r(A)p.r(G)p.r(U)p.r(G)p.r(C)p.r(U)p.r(G)p.r(G)p.r(G)p.r(G)p.r(A)p.r(C)p.r(C)p.d(A)p.d(C)}$$$RNA1{StrandType:ss}|RNA2{StrandType:as}$", "normalised inhibition (eCFP-eYFP dual reporter)": 62.2},
      {"substance": "RNA1{r(G)p.r(U)p.r(A)p.r(G)p.r(A)p.r(C)p.r(A)p.r(A)p.r(G)p.r(U)p.r(U)p.r(G)p.r(G)p.r(G)p.r(A)p.r(A)p.r(G)p.r(A)p.r(A)p.d(T)p.d(T)}|RNA2{r(U)p.r(U)p.r(C)p.r(U)p.r(U)p.r(C)p.r(C)p.r(C)p.r(A)p.r(A)p.r(C)p.r(U)p.r(U)p.r(G)p.r(U)p.r(C)p.r(U)p.r(A)p.r(C)p.d(A)p.d(T)}$$$RNA1{StrandType:ss}|RNA2{StrandType:as}$", "normalised inhibition (eCFP-eYFP dual reporter)": 94},
      {"substance": "RNA1{r(G)p.r(U)p.r(G)p.r(G)p.r(U)p.r(C)p.r(A)p.r(U)p.r(U)p.r(G)p.r(C)p.r(U)p.r(G)p.r(G)p.r(C)p.r(C)p.r(C)p.r(U)p.r(C)p.d(T)p.d(T)}|RNA2{r(G)p.r(A)p.r(G)p.r(G)p.r(G)p.r(C)p.r(C)p.r(A)p.r(G)p.r(C)p.r(A)p.r(A)p.r(U)p.r(G)p.r(A)p.r(C)p.r(C)p.r(A)p.r(C)p.d(A)p.d(T)}$$$RNA1{StrandType:ss}|RNA2{StrandType:as}$", "normalised inhibition (eCFP-eYFP dual reporter)": 54.1},
      {"substance": "RNA1{r(G)p.r(U)p.r(G)p.r(G)p.r(U)p.r(C)p.r(C)p.r(C)p.r(C)p.r(A)p.r(G)p.r(C)p.r(A)p.r(C)p.r(U)p.r(G)p.r(C)p.r(A)p.r(G)p.d(T)p.d(T)}|RNA2{r(C)p.r(U)p.r(G)p.r(C)p.r(A)p.r(G)p.r(U)p.r(G)p.r(C)p.r(U)p.r(G)p.r(G)p.r(G)p.r(G)p.r(A)p.r(C)p.r(C)p.r(A)p.r(C)p.d(T)p.d(T)}$$$RNA1{StrandType:ss}|RNA2{StrandType:as}$", "normalised inhibition (eCFP-eYFP dual reporter)": 59.4},
      {"substance": "RNA1{r(G)p.r(U)p.r(U)p.r(C)p.r(C)p.r(U)p.r(G)p.r(G)p.r(C)p.r(A)p.r(U)p.r(C)p.r(A)p.r(A)p.r(A)p.r(G)p.r(C)p.r(C)p.r(G)p.d(T)p.d(T)}|RNA2{r(C)p.r(G)p.r(G)p.r(C)p.r(U)p.r(U)p.r(U)p.r(G)p.r(A)p.r(U)p.r(G)p.r(C)p.r(C)p.r(A)p.r(G)p.r(G)p.r(A)p.r(A)p.r(C)p.d(T)p.d(G)}$$$RNA1{StrandType:ss}|RNA2{StrandType:as}$", "normalised inhibition (eCFP-eYFP dual reporter)": 78.2},
      {"substance": "RNA1{r(U)p.r(A)p.r(G)p.r(A)p.r(G)p.r(C)p.r(A)p.r(U)p.r(G)p.r(G)p.r(A)p.r(C)p.r(U)p.r(A)p.r(G)p.r(G)p.r(C)p.r(U)p.r(A)p.d(T)p.d(T)}|RNA2{r(U)p.r(A)p.r(G)p.r(C)p.r(C)p.r(U)p.r(A)p.r(G)p.r(U)p.r(C)p.r(C)p.r(A)p.r(U)p.r(G)p.r(C)p.r(U)p.r(C)p.r(U)p.r(A)p.d(G)p.d(C)}$$$RNA1{StrandType:ss}|RNA2{StrandType:as}$", "normalised inhibition (eCFP-eYFP dual reporter)": 73.8},
      {"substance": "RNA1{r(U)p.r(A)p.r(G)p.r(A)p.r(U)p.r(A)p.r(U)p.r(U)p.r(U)p.r(U)p.r(G)p.r(A)p.r(A)p.r(A)p.r(G)p.r(A)p.r(U)p.r(A)p.r(A)p.d(T)p.d(T)}|RNA2{r(U)p.r(U)p.r(A)p.r(U)p.r(C)p.r(U)p.r(U)p.r(U)p.r(C)p.r(A)p.r(A)p.r(A)p.r(A)p.r(U)p.r(A)p.r(U)p.r(C)p.r(U)p.r(A)p.d(G)p.d(A)}$$$RNA1{StrandType:ss}|RNA2{StrandType:as}$", "normalised inhibition (eCFP-eYFP dual reporter)": 80.6},
      {"substance": "RNA1{r(U)p.r(A)p.r(G)p.r(C)p.r(G)p.r(G)p.r(A)p.r(G)p.r(C)p.r(A)p.r(G)p.r(U)p.r(G)p.r(G)p.r(A)p.r(A)p.r(G)p.r(A)p.r(C)p.d(T)p.d(T)}|RNA2{r(G)p.r(U)p.r(C)p.r(U)p.r(U)p.r(C)p.r(C)p.r(A)p.r(C)p.r(U)p.r(G)p.r(C)p.r(U)p.r(C)p.r(C)p.r(G)p.r(C)p.r(U)p.r(A)p.d(C)p.d(A)}$$$RNA1{StrandType:ss}|RNA2{StrandType:as}$", "normalised inhibition (eCFP-eYFP dual reporter)": 40.2},
      {"substance": "RNA1{r(U)p.r(A)p.r(U)p.r(U)p.r(C)p.r(C)p.r(U)p.r(U)p.r(C)p.r(C)p.r(A)p.r(G)p.r(A)p.r(A)p.r(G)p.r(A)p.r(A)p.r(U)p.r(A)p.d(T)p.d(T)}|RNA2{r(U)p.r(A)p.r(U)p.r(U)p.r(C)p.r(U)p.r(U)p.r(C)p.r(U)p.r(G)p.r(G)p.r(A)p.r(A)p.r(G)p.r(G)p.r(A)p.r(A)p.r(U)p.r(A)p.d(G)p.d(T)}$$$RNA1{StrandType:ss}|RNA2{StrandType:as}$", "normalised inhibition (eCFP-eYFP dual reporter)": 83},
      {"substance": "RNA1{r(U)p.r(C)p.r(A)p.r(U)p.r(G)p.r(U)p.r(G)p.r(G)p.r(U)p.r(C)p.r(A)p.r(U)p.r(U)p.r(G)p.r(C)p.r(U)p.r(G)p.r(G)p.r(C)p.d(T)p.d(T)}|RNA2{r(G)p.r(C)p.r(C)p.r(A)p.r(G)p.r(C)p.r(A)p.r(A)p.r(U)p.r(G)p.r(A)p.r(C)p.r(C)p.r(A)p.r(C)p.r(A)p.r(U)p.r(G)p.r(A)p.d(A)p.d(A)}$$$RNA1{StrandType:ss}|RNA2{StrandType:as}$", "normalised inhibition (eCFP-eYFP dual reporter)": 50.6},
      {"substance": "RNA1{r(U)p.r(C)p.r(C)p.r(A)p.r(G)p.r(A)p.r(U)p.r(G)p.r(A)p.r(U)p.r(C)p.r(C)p.r(A)p.r(U)p.r(U)p.r(A)p.r(G)p.r(C)p.r(A)p.d(T)p.d(T)}|RNA2{r(U)p.r(G)p.r(C)p.r(U)p.r(A)p.r(A)p.r(U)p.r(G)p.r(G)p.r(A)p.r(U)p.r(C)p.r(A)p.r(U)p.r(C)p.r(U)p.r(G)p.r(G)p.r(A)p.d(T)p.d(T)}$$$RNA1{StrandType:ss}|RNA2{StrandType:as}$", "normalised inhibition (eCFP-eYFP dual reporter)": 85.9},
      {"substance": "RNA1{r(U)p.r(C)p.r(C)p.r(C)p.r(A)p.r(A)p.r(U)p.r(C)p.r(C)p.r(A)p.r(G)p.r(A)p.r(U)p.r(G)p.r(A)p.r(U)p.r(C)p.r(C)p.r(A)p.d(T)p.d(T)}|RNA2{r(U)p.r(G)p.r(G)p.r(A)p.r(U)p.r(C)p.r(A)p.r(U)p.r(C)p.r(U)p.r(G)p.r(G)p.r(A)p.r(U)p.r(U)p.r(G)p.r(G)p.r(G)p.r(A)p.d(G)p.d(C)}$$$RNA1{StrandType:ss}|RNA2{StrandType:as}$", "normalised inhibition (eCFP-eYFP dual reporter)": 78.4}
    ]}
  ]
}
